Source: ChEMBL document CHEMBL1629629, “Reassessment of recommended imipenem doses in febrile neutropenic patients with hematological malignancies” (Antimicrob Agents Chemother, 2009)
≈ marks a conversion by molar mass, not a printed value.

Legend:
Homo sapiens [1] = test: T>MIC in febrile neutropenic patient with hematological malignancies at 500 mg administered as 30 mins infusion every 6 hrs; format: functional
Homo sapiens [2] = test: T>MIC in febrile neutropenic patient with hematological malignancies at 500 mg administered as infusion every 6 hrs; format: functional
Homo sapiens [3] = test: T>MIC in febrile neutropenic patient with hematological malignancies at 750 mg administered as 120 mins infusion every 6 hrs; format: functional
[4] = Cmax in febrile neutropenic patient with hematological malignancies at 500 mg administered as 30 mins infusion every 6 hrs; format: ADME, organism-based; parameters: dose 500 mg; settings: human, in vivo, iv
[5] = T>MIC in febrile neutropenic patient with hematological malignancies at 500 mg administered as infusion every 4 hrs; format: functional, Homo sapiens
[6] = Renal clearance in febrile neutropenic patient with hematological malignancies at 500 mg administered as 30 mins infusion every 6 hrs; format: ADME, organism-based, Kidney; settings: human, in vivo, iv, read-out: CL_renal (converted)
Homo sapiens [7] = species on record: Homo sapiens; test: T>MIC in febrile neutropenic patient with hematological malignancies at 6 g/day
[8] = Elimination half life in febrile neutropenic patient with hematological malignancies at 500 mg administered as 30 mins infusion every 6 hrs; format: ADME, organism-based; settings: human, in vivo, iv
Pseudomonas aeruginosa = test: Antimicrobial activity against Pseudomonas aeruginosa; format: functional
Enterococcus = test: Antimicrobial activity against Enterococcus; format: functional

fT>MIC (Homo sapiens [1]): 53%
fT>MIC (Homo sapiens [2]): 18%
fT>MIC (Homo sapiens [3]): 58%
Cmax [4]: 6600 ng/mL
fT>MIC [5]: 73%
CL renal [6]: 79.8 mL/min
fT>MIC (Homo sapiens [7]): 90%
half-life [8]: 1.43 h
MIC90 (Pseudomonas aeruginosa): 2 µg/mL (≈ 6.68 µM)
MIC90 (Enterococcus): 2 µg/mL (≈ 6.68 µM)
Structure (SMILES): C[C@@H](O)[C@H]1C(=O)N2C(C(=O)O)=C(SCCNC=N)C[C@H]12 [IMIPENEM ANHYDROUS]
